Reference: paper PMC6556873, “Rapid Covalent-Probe Discovery by Electrophile-Fragment Screening” (Journal of the American Chemical Society, 2019)
Where two headings read alike, the source gives them in different places.

How the values were obtained:
[1] = molecular target: T1, PCAF (Homo sapiens, UniProt Q92831); set-up: Intact protein LC/MS covalent labelling, fragments in pools of five, 200 uM each, 4 °C; conditions: 24 h, 4 °C, pool of five; 200 µM; covalent
T1 construct: gene KAT2B

[2] = molecular target: T2, NNMT (hNNMT) (Homo sapiens, UniProt P40261); set-up: Intact protein LC/MS covalent labelling, fragments in pools of five, 200 uM each, 4 °C; conditions: 24 h, 4 °C, pool of five; 200 µM; covalent
T2 construct: wild type, N-terminal His6 tag kept (no cleavage described), E. coli, construct 31248 Da
T2 sequence (P40261 1-264): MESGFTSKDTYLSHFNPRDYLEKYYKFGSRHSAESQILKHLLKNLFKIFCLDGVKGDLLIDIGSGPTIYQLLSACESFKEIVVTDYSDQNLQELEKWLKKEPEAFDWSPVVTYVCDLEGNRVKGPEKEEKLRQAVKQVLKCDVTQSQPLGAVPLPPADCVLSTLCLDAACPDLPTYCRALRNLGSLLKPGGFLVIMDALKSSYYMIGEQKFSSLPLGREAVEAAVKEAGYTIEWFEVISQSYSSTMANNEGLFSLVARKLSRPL

[3] = molecular target: T3, NUDT7 (Homo sapiens, UniProt P0C024); set-up: Intact protein LC/MS covalent labelling, fragments in pools of five, 200 uM each, 4 °C; conditions: 24 h, 4 °C, pool of five; 200 µM; covalent
T3 construct: residues 14-235, E. coli, pNIC28-Bsa4, N-terminal His6 tag removed by TEV, construct 26672 Da

[4] = molecular target: T4, BSA (Bos taurus, UniProt P02769); set-up: Intact protein LC/MS covalent labelling, fragments in pools of five, 200 uM each, 4 °C; conditions: 24 h, 4 °C, pool of five; 200 µM; covalent
T4 construct: gene ALB

[5] = in vitro; set-up: species or system CCD841, HEK293; conditions: human, hb2 cells, read-out: HB-2 Cells Viability (%)
[6] = in vitro; set-up: species or system HB2, CCD841; conditions: human, hek293 cells
[7] = in vitro; set-up: species or system HB2, HEK293; conditions: human, ccd841 cells
[8] = molecular target: T5, OTUB2 (OTUB2A) (Homo sapiens, UniProt Q96DC9); set-up: Intact protein LC/MS covalent labelling, fragments in pools of five, 200 uM each, 4 °C; conditions: 24 h, 4 °C, pool of five; 200 µM; covalent
T5 construct: full length residues 1-234, E. coli BL21(DE3)-R3, His tag removed by TEV, construct 27312 Da
T5 sequence (Q96DC9 1-234): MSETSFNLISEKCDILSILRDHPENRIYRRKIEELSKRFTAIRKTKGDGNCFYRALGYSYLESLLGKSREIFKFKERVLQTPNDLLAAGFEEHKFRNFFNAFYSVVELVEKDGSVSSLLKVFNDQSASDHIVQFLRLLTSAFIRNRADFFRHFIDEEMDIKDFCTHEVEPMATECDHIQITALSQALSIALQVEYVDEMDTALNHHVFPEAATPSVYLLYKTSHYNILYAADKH

T4 sequence (P02769 whole entry, the tested form may be a part): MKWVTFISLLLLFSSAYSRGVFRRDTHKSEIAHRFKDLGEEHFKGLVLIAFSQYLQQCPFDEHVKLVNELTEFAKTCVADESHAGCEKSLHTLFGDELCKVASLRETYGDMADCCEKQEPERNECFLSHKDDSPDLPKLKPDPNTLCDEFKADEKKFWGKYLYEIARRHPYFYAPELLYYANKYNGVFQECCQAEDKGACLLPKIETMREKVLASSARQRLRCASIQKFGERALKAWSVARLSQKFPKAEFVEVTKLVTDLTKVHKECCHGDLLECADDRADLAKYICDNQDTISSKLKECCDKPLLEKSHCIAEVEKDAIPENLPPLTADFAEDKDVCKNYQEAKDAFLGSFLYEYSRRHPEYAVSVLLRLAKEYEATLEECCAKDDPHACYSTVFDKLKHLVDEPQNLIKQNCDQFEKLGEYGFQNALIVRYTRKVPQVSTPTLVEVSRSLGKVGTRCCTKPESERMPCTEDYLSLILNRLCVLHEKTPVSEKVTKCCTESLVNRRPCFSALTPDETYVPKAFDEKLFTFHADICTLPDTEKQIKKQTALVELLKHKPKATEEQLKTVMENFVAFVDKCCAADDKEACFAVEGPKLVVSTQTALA
T1 sequence (Q92831 whole entry, the tested form may be a part): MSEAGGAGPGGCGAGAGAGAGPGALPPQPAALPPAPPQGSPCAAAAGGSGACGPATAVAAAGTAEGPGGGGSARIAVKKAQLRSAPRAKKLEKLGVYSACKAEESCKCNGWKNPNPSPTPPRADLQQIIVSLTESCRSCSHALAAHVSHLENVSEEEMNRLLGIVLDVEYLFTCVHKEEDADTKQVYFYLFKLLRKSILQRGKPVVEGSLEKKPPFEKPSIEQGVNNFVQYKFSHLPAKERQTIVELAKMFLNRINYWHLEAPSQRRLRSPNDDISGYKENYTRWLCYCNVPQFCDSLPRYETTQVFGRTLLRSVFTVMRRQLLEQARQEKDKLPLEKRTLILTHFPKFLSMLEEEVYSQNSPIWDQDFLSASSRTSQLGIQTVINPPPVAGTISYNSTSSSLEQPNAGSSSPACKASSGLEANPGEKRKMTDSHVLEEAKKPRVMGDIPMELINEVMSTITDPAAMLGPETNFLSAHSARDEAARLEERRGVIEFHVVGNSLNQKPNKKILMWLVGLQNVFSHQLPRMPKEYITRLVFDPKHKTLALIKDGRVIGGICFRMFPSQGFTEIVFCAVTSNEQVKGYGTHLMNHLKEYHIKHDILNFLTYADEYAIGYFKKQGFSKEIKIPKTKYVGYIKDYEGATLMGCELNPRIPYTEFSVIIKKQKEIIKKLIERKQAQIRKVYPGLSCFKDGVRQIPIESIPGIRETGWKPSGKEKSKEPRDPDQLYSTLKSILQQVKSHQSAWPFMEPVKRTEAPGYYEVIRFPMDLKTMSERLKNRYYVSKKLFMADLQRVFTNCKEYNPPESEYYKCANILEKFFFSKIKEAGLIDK
T3 sequence (P0C024 14-235): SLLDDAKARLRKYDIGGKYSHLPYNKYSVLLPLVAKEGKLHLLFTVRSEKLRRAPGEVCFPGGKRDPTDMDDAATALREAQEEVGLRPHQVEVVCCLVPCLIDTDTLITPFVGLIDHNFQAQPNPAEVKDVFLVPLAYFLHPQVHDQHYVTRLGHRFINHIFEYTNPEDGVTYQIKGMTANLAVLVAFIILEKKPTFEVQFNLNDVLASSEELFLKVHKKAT

SMILES	PCAF [1]	NNMT [2]	NUDT7 [3]	BSA [4]	OTUB2 [8]	viability at 48 h, 10 µM [5] [%]	viability at 48 h, 10 µM [6] [%]	viability at 48 h, 10 µM [7] [%]
N#CC1(NC(=O)CCl)CCCC1 [PCM-0102136]	0	0	0	0		70	44	61.1
O=C1CN(C(=O)CCl)C2(CCCCC2)C(=O)N1 [PCM-0102139]	0	0	0.22		0.05	98.9	96.3	95.8
Cc1ccccc1CNC(=O)CCl [PCM-0102253]	0	0.2	0	0		99.6	93.4	86.6
O=C(CCl)NC1CCCCCCC1 [PCM-0102318]	0	0	0	0		86.6	66.1	92.1
C=CC(=O)Nc1ccc(N(C)C)cc1 [PCM-0102461]	0	0.2	0	0		102	81.3	111
C=CC(=O)N1CCCC1c1cccc2c1OCCO2 (stereo not drawn) [PCM-0102489]	0	0	0		0	96.3	89.9	99.1
O=C(CCl)N1CCC(Cc2ccccc2)CC1 [PCM-0102492]	0	0.51	0.18	0	0.18			
C=CC(=O)N1CCC(c2nc(C(F)(F)F)c[nH]2)CC1 [PCM-0102513]	0	0.22	0	0		95.7	111	99.4
C=CC(=O)NC1CCCN(C(=O)OC)C1 (stereo not drawn) [PCM-0102526]	0	0.22	0	0		101	90.7	106
C=CC(=O)N1CCC(c2nc3cccc(C)c3o2)CC1 [PCM-0102530]	0	0	0		0	108	94	101
C=CC(=O)NCc1ccc2c(c1)C(C)(C)C(=O)N2 [PCM-0102570]	0	0.21	0	0		107	92	110
C=CC(=O)N1CCNC(=O)C1c1cccs1 (stereo not drawn) [PCM-0102597]	0	0	0	0		103	81	113
O=C(CCl)Nc1cc2c(cc1Cl)C(=O)c1ccccc1C2=O [PCM-0102757]	0	0	0.12	0		1.4	22.5	58.4
CC1CCC(N(C(=O)CCl)C2CC2)CC1 (stereo not drawn) [PCM-0102792]	0	0.21	0.13	0		11.4	6.8	8.8
C=CC(=O)Nc1cccc(OC)c1 [PCM-0102800]	0	0	0	0	0			
O=C(CCl)Nc1ccc(N2CCCCC2)nc1 [PCM-0102812]	0	0.53	0.14	0		32.5	4.4	61.5
O=C(CCl)Nc1ccc2c(c1)NC(=O)CO2 [PCM-0102890]	0	0.22	0.08	0	0.32			
C=CC(=O)Nc1cccc(F)c1 [PCM-0102922]	0	0	0	0.19	0			
CCN(C(=O)CCl)C1=CCCCC1 [PCM-0103084]	0		0	0.19	0	106	120	97.8

Now from value to compound, other results behind:

PCAF [1]	NNMT [2]	NUDT7 [3]	BSA [4]	OTUB2 [8]	SMILES	viability at 48 h, 10 µM [5] [%]	viability at 48 h, 10 µM [6] [%]	viability at 48 h, 10 µM [7] [%]
0		0.65	0	0	O=C(CCl)N1CCC(c2nc3ccccc3s2)CC1 [PCM-0103068]	17.4	15.4	46
0		0	0	0	C=CC(=O)N1CCCC(c2nc3c(s2)CCCC3)C1 (stereo not drawn) [PCM-0103069]	98.5	79.4	104
0		0	0	0	COCC(=O)NNC(=O)CCl [PCM-0103070]	95.3	97.1	85.8
0		0.4	0	0	O=C(CCl)N1CCCc2cccc(F)c21 [PCM-0103071]	62.4	25.1	65.9
0		0	0	0	C=CC(=O)NC(c1cnn(C)c1)C(F)(F)F (stereo not drawn) [PCM-0103073]	99.5	94.4	107
0		0	0	0	C=CC(=O)N1CCc2c(ncn(CC)c2=O)C1 [PCM-0103074]	101	100	115
0		0	0	0	C=CC(=O)NCc1snnc1C [PCM-0103079]	104	97	102
0		0	0	0.79	O=C(CCl)NCc1ccc(Cl)s1 [PCM-0103080]	79.6	73	61.2
0		0.15	0	0	Cc1ccc(N(C(=O)CCl)C2C=CS(=O)(=O)C2)cc1C (stereo not drawn) [PCM-0103082]	19.6	4.1	10.5
0		0	0	0	C=CC(=O)NC1CCCn2nc(C)nc21 (stereo not drawn) [PCM-0103083]	105	115	116
